The text below walks through data of paper PMC6691347, “Design and Development of a Novel Peptide for Treating Intestinal Inflammation” (Frontiers in Immunology, 2019).

Series [1] has as its system LPS-stimulated RAW264.7 cells. The experiment in a line: ELISA of cytokine release from LPS-stimulated RAW264.7 cells. The settings on record: RAW264.7, 10 μg/mL peptide 1 h before 100 ng/mL LPS, 12 h, ELISA of supernatant; compared to the other tested peptides; n = 3. It is filed as cell-based, Mouse. As to the method:
(§1) RAW264.7 cells were treated with or without 10 μg/mL peptides for 1h before the addition of 100 ng/mL LPS and further incubation for 12 h at 37°C. Levels of tumor necrosis factor-alpha (TNF-α), interleukin-6 (IL-6), and IL-1β were detected in culture supernatant and jejunum, respectively. In addition, the level of interferon-gamma (IFN-γ) was detected in the jejunum. ELISA was performed using a commercial ELISA kit (eBioscience, San Diego, USA).
A general note: ELISA stands for enzyme-linked immunosorbent assay.

Series [2] has as its system RAW264.7 cells. The experiment in a line: Cell viability assay (CCK-8). It counts as cell-based, Mouse. The conditions noted are these: for cytotoxic activity on RAW264.7 macrophage cells: CCK-8, 24 h, among selected hybrid peptides and their parental peptides; for cell viability: RAW264.7 cells, lower doses of peptide, 24 h, CCK-8, OD450, 8 biological replicates. As for the experimental part: The viability of peptide-treated RAW264.7 cells was determined using the Cell Counting Kit-8 (CCK-8) Assay Kit (Dojindo) ([42]). RAW264.7 cells were pre-seeded on a 96-well plate at a density of 3 × 10^4 cells/mL in 100 μL DMEM medium overnight. The cells were either treated with various concentrations of peptides or without peptides at 37°C and 5% CO2 for 24 h. Each well was incubated with 10 μL CCK-8 solution for 4 h in the darkness. Then, the absorbance at 450 nm was measured using a microplate reader. Cell viability was calculated as:
Cell viability (%)=(OD450 (sample)/OD450(control))×100%
where OD450(sample) is the absorbance at 450 nm of the cells with peptides treated and OD450(control) is the absorbance at 450 nm of the cells without peptides treated.

Series [3] deals with LPS-induced intestinal inflammation. The experiment in a line: LPS-induced intestinal inflammation murine model. It is filed as in vivo, C57/BL6 male mice. As to the method:
Seventy-two C57/BL6 male mice (6–8 weeks of age) were purchased from Charles River (Beijing, China). Mice were maintained in a specific pathogen free (SPF) environment at 22 ± 1°C with relative 55 ± 10% humidity, and the assays were performed in conformity with the laws and regulations for live animal treatment at China Agricultural University.
The mice were randomly distributed into six groups (n = 12 each): control, LPS (E. coli, O111:B4, Sigma-Aldrich, USA) treatment, LL-37 pretreatment followed by LPS treatment (LL-37 + LPS), Tα1 pretreatment followed by LPS treatment (Tα1 + LPS), LTA pretreatment followed by LPS treatment (LTA + LPS). Different peptides (10 mg/kg mouse weight) were injected intraperitoneally once daily for 7 days, whereas an equal volume of sterile saline was injected intraperitoneally to the control and LPS-treated groups. On day 7, mice in LPS, LL-37 + LPS, Tα1 + LPS, and LTA + LPS groups were intraperitoneally injected with LPS (10 mg/kg mouse weight) 1h after saline or the peptides treatment, and the control group was intraperitoneally injected with an equal volume of saline. The mice were then euthanized by cervical dislocation 6 h after intraperitoneal injection of LPS or saline, and samples of the intestines were collected for analysis. The body weights of the mice were recorded before and after the experiment.
Intestinal tissues samples from the jejunum were fixed in 4% paraformaldehyde immediately after the mice were euthanized. After embedding, the tissues were sectioned (5 μm) using an RM2235 microtome (Leica) and stained with hematoxylin-eosin (H&E). Images were acquired using a DM3000 microscope. LPS-induced intestinal injury was evaluated using Chiu's score ([43]) according to changes of the villus and glands of the jejunal mucosa. Villus height and crypt depth were measured using CaseViewer software.
For immunohistochemical analysis of CD177^+, nonspecific binding sites were blocked with PBS containing 1% w/v BSA for 1 h. Anti-CD177^+ antibodies (Santa, USA) were added at a dilution of 1:100 and incubated overnight at 4°C. Samples were washed five times in PBS and treated with horse-radish peroxidase (HRP)-conjugated rabbit anti-goat IgG (JIR, USA) at ratio of 1:100; samples were left to incubate at 4°C for 1 h. After washing with PBS, 3,3′-diaminobenzidine (DAB; DAKO, USA) was added, and the slides were counterstained with Harris hematoxylin. Finally, the samples were dehydrated in an alcohol gradient (70–100%), and cleared in xylene. All slides were mounted in neutral balsam.
The apoptotic cells in the jejunal sections were detected via a commercial the terminal deoxynucleotidyl transferase mediated dUTP nick end labeling (TUNEL) staining kit according to the manufacturer's instruction (Roche, Indianapolis, IN, USA). The sections were co-stained with the DAPI (Servicebio, Wuhan, China). The number of apoptotic cells was counted in four to six randomly selected fields at 200 × magnification.
as §1
The activities of myeloperoxidase (MPO) in the jejunum were detected using ELISA kits (Boster Wuhan, China) according to the manufacturer's instructions.
Whole protein of intestinal tissues was obtained with the whole protein extraction kit (KeyGEN Biotech, Nanjing, China) according to the manufacturer's instructions. The protein concentration was measured via the BCA kit (KeyGEN Biotech, Nanjing, China). […]

Series [4] can be described thus: Neutralization of LPS, Chromogenic End-point Tachypleus Amebocyte Lysate (CE TAL) assay. It counts as biochemical, E. coli. As for the experimental part: The neutralization of LPS by the peptides was assessed using a quantitative Chromogenic End-point Tachypleus Amebocyte Lysate (CE TAL) assay via the QCL-1000 kit (Xiamen, China). A constant concentration of LPS (1.0 EU/mL final concentration; E. coli, O111:B4, Sigma-Aldrich, USA) was incubated with various concentrations of the peptides or polymyxin B (PMB) (0–64 μg/mL final concentration; Sigma-Aldrich, USA) at 37°C for 15 min in the wells of […] sterile microliters plates. The 100 μL aliquots concentrate of limulus amebocyte lysate reagent was added and incubated at 37°C for 6 min. On the addition of chromogenic substrate, yellow color appeared. The reactions were stopped by adding 25% HCl, and then the absorbances measured at 540 nm ([45]).

Setting [5] is: ELISA, peptide 10 mg/kg i.p. pretreatment, LPS 10 mg/kg, LTA compared to Tα1- or LL-37-pretreated groups, n = 12.
The mark [6] stands for this setting: jejunal tissues, western blot, LTA pretreatment vs LPS, n = 3.
Setting [7] is: jejunum, western blot, LTA 10 mg/kg i.p. pretreatment, LPS 10 mg/kg.

Regarding “IGKEFKRIVQRIKDFLRNLVPRTEKEKKEVVE [LTA, hybrid peptide LL-37-Tα1]”, in series [1], the “release of IL-1β” value is “remarkable decrease”, the “release of IL-6” value is listed as “remarkable decrease” and the “release of TNF-α” value is listed as “remarkable decrease”. Further, in series [2], the “cytotoxic activity on RAW264.7 macrophage cells” value is listed as “lowest cytotoxic activity” and the cell viability entry is listed as “greater than 100%”. In series [3] (CE TAL test of mouse plasma, LTA 10 mg/kg i.p. pretreatment, LPS 10 mg/kg), the “plasma LPS level” value is recorded as “significantly reduced the plasma LPS level”. Further, the “MPO activity in the jejunum” value in series [3] (ELISA kit, peptide 10 mg/kg i.p. pretreatment, LPS 10 mg/kg, compared to the LPS-treated group, n = 12) was “markedly decreased MPO activity”. For the same sequence, in series [3] (setting [5]), the “IFN-γ concentration in the jejunum” value was “significantly lower”, the “IL-1β concentration in the jejunum” value is recorded as “significantly lower”, the “IL-6 concentration in the jejunum” value is “significantly lower” and the “TNF-α concentration in the jejunum” value was “significantly lower”. Further, the “infiltration of CD177+ neutrophils into jejunal tissue” value in series [3] (immunohistochemistry, peptide 10 mg/kg i.p. pretreatment, LPS 10 mg/kg) is listed as “reduced this effect to the basal level”. Also, in series [3] (jejunal sections, peptide 10 mg/kg i.p. pretreatment, LPS 10 mg/kg, compared to the LPS-treated group), the “apoptosis index (TUNEL staining)” value is listed as “significantly reduced the apoptosis index”. Moreover, in series [3] (setting [6]), the “phosphorylation of IKK-β” value was “decreased”, the “phosphorylation of IκB-α” value is on record as “decreased” and the “phosphorylation of NF-κB” value is on record as “decreased”. Moreover, the “Chiu's score” value in series [3] (jejunum H&E, mice, peptide 10 mg/kg i.p. once daily for 7 days, LPS 10 mg/kg i.p., 6 h after LPS, LPS group 3.33 ± 0.58, mean ± SD) was 0.67 ± 0.58. In series [3] (setting [7]), the “expression of Occludin” value is reported as “significantly higher than that in the LPS-group” and the “expression of ZO-1” value is given as “significantly higher than that in the LPS-group”. In addition, the “villus height to crypt depth (V/C) ratio” value in series [3] (jejunum, mice, peptide 10 mg/kg i.p. once daily for 7 days, LPS 10 mg/kg i.p., 6 h after LPS, LPS group 2.35 ± 0.389, mean ± SD) came out at 4.19 ± 0.364. The “body weight (weight loss after LPS)” value in series [3] (mice, peptide 10 mg/kg i.p. once daily, then LPS 10 mg/kg i.p. 1 h after last dose, n = 12) is “recovered their weight loss rapidly”. In addition, the “concentration that completely neutralizes LPS” value in series [4] (LPS 1.0 EU/mL, 37°C 15 min, CE TAL, n = 3) is no less than 8 µg/mL. Also, the “inhibition of the activation of tachypleus amebocyte lysate (LPS neutralization)” value in series [4] (LPS 1.0 EU/mL, peptide 0–64 μg/mL, 37°C 15 min, n = 3) is “dose-dependent manner”. In addition, the “concentration that almost completely neutralizes LPS” value in series [4] (in vitro, CE TAL, statement of the discussion) turned out to be 8 µg/mL.
As to “IGKEFKRIVQRIKDFLRNLVPRTERKDVT [LTP, hybrid peptide LL-37-TP5]”, in series [2], the “cytotoxic activity on RAW264.7 macrophage cells” value was “lowest cytotoxic activity” and the cell viability result is reported as “greater than 100%”.
